How the values were obtained:
Assay type in all cases: in vivo
[1] = tested on: Cabbage Looper (Trichoplusia ni, TRIPNI); test: Bioassays on Cabbage Looper (CL), 128-well diet tray assay; details: Trichoplusia ni; for pest or weed control at 50 µg/cm2: Cabbage Looper, Table ABC / ABC-DP rating, read-out: CL rating; for mortality at 50 µg/cm2: 168 h, second instar larvae, 50 μg/cm^2 of test molecule on artificial diet, 25° C., five to seven days, average of eight wells, read-out: CL % Control (or Mortality) rating
Outline: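 Test molecule was dissolved in 90:10 acetone-water, applied to artificial diet at 50 μg/cm^2 and allowed to dry. Second-instar larvae were then added, one to five per well, and trays held at 25° C for five to seven days before mortality was scored and averaged.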

[2] = tested on: Yellow Fever Mosquito (Aedes aegypti, AEDSAE); details: for YFM rating: Yellow Fever Mosquito, Table ABC / ABC-DP rating; for YFM % Control (or Mortality) rating: about 1 day-old larvae, 4000 ppm master solution diluted with 90:10 water/acetone, 15 μL per well plus 220 μL larval mixture, 3 days
Outline: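 Mortality after 3 days at room temperature is the read-out, scored well by well and converted to a rating. Test molecules came from 4000 ppm stocks in DMSO, further diluted in 90:10 water/acetone, and were exposed to roughly 1-day-old larvae suspended in liver-powder water.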

[3] = tested on: Beet Armyworm (Spodoptera exigua, LAPHEG); test: Bioassays on Beet Armyworm (BAW), 128-well diet tray assay; details: Spodoptera exigua; for pest or weed control at 50 µg/cm2: Beet Armyworm, Table ABC / ABC-DP rating, read-out: BAW rating; for mortality at 50 µg/cm2: 168 h, second instar larvae, 50 μg/cm^2 of test molecule on artificial diet, 25° C., five to seven days, average of eight wells, read-out: BAW % Control (or Mortality) rating
Outline: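 Eight diet wells per compound were treated at 50 μg/cm^2 (acetone-water 90:10), dried, then infested with 1–5 second-instar larvae each. After five to seven days at 25 °C under 14:10 photoperiod, mortality was scored and averaged across wells.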

SMILES | pest or weed control at 50 µg/cm2 [1] [%] | YFM rating [2] | pest or weed control at 50 µg/cm2 [3] [%] | mortality at 50 µg/cm2 [1] [%] | YFM % Control (or Mortality) rating [2] | mortality at 50 µg/cm2 [3] [%]
COCC(C)NNC(=O)c1cc(NC(=O)[C@H]2[C@H](c3cc(Cl)cc(Cl)c3)C2(Cl)Cl)ccc1Cl (relative stereo) [F2551, trans-2,2-Dichloro-N-(4-chloro-3-(2-(1-methoxypropan-2-yl)hydrazine-1-carbonyl)phenyl)-3-(3,5-dichlorophenyl)cyclopropane-1-carboxamide] | 50 to 100 | A (80–100) | 50 to 100 |  |  | 
CN(NCCC(F)(F)F)C(=O)c1cc(NC(=O)[C@H]2[C@H](c3cc(Cl)cc(Cl)c3)C2(Cl)Cl)ccc1Cl (relative stereo) [F2552, trans-2,2-Dichloro-N-(4-chloro-3-(1-methyl-2-(3,3,3-trifluoropropyl)hydrazine-1-carbonyl)phenyl)-3-(3,5-dichlorophenyl)cyclopropane-1-carboxamide] | 50 to 100 | A (80–100) | 50 to 100 |  |  | 
O=C(NNc1ccc(F)cc1)c1cc(NC(=O)[C@H]2[C@H](c3cc(Cl)cc(Cl)c3)C2(Cl)Cl)ccc1Cl (relative stereo) [F2553, trans-2,2-Dichloro-N-(4-chloro-3-(2-(4-fluorophenyl)hydrazine-1-carbonyl)phenyl)-3-(3,5-dichlorophenyl)cyclopropane-1-carboxamide] | 50 to 100 | A (80–100) | 50 to 100 |  |  | 
N#Cc1ccc(NNC(=O)c2cc(NC(=O)[C@H]3[C@H](c4cc(Cl)cc(Cl)c4)C3(Cl)Cl)ccc2Cl)cc1 (relative stereo) [F2554, trans-2,2-Dichloro-N-(4-chloro-3-(2-(4-cyanophenyl)hydrazine-1-carbonyl)phenyl)-3-(3,5-dichlorophenyl)cyclopropane-1-carboxamide] | 50 to 100 | A (80–100) | 50 to 100 |  |  | 
O=C(NNc1ccc([N+](=O)[O-])cc1)c1cc(NC(=O)[C@H]2[C@H](c3cc(Cl)cc(Cl)c3)C2(Cl)Cl)ccc1Cl (relative stereo) [F2555, trans-2,2-Dichloro-N-(4-chloro-3-(2-(4-nitrophenyl)hydrazine-1-carbonyl)phenyl)-3-(3,5-dichlorophenyl)cyclopropane-1-carboxamide] | 50 to 100 | A (80–100) | 50 to 100 |  |  | 
CN(NC(=O)c1cc(NC(=O)[C@H]2[C@H](c3cc(Cl)cc(Cl)c3)C2(Cl)Cl)ccc1Cl)c1ccccc1 (relative stereo) [F2557, trans-2,2-Dichloro-N-(4-chloro-3-(2-methyl-2-phenylhydrazine-1-carbonyl)phenyl)-3-(3,5-dichlorophenyl)cyclopropane-1-carboxamide] | 50 to 100 | A (80–100) | 50 to 100 |  |  | 
O=C(NNc1cc(F)ccc1F)c1cc(NC(=O)[C@H]2[C@H](c3cc(Cl)cc(Cl)c3)C2(Cl)Cl)ccc1Cl (relative stereo) [F2558, trans-2,2-Dichloro-N-(4-chloro-3-(2-(2,5-difluorophenyl)hydrazine-1-carbonyl)phenyl)-3-(3,5-dichlorophenyl)cyclopropane-1-carboxamide] | 50 to 100 | A (80–100) | 50 to 100 |  |  | 
O=C(NNc1ccc(F)cc1F)c1cc(NC(=O)[C@H]2[C@H](c3cc(Cl)cc(Cl)c3)C2(Cl)Cl)ccc1Cl (relative stereo) [F2559, trans-2,2-Dichloro-N-(4-chloro-3-(2-(2,4-difluorophenyl)hydrazine-1-carbonyl)phenyl)-3-(3,5-dichlorophenyl)cyclopropane-1-carboxamide] | 50 to 100 | B (More than 0 – Less than 80) | 50 to 100 |  |  | 
O=C(NNc1cc(Cl)ccc1Cl)c1cc(NC(=O)[C@H]2[C@H](c3cc(Cl)cc(Cl)c3)C2(Cl)Cl)ccc1Cl (relative stereo) [F2561, trans-2,2-Dichloro-N-(4-chloro-3-(2-(2,5-dichlorophenyl)hydrazine-1-carbonyl)phenyl)-3-(3,5-dichlorophenyl)cyclopropane-1-carboxamide] | 50 to 100 | B (More than 0 – Less than 80) | 50 to 100 |  |  | 
Cc1cc(F)ccc1NNC(=O)c1cc(NC(=O)[C@H]2[C@H](c3cc(Cl)cc(Cl)c3)C2(Cl)Cl)ccc1Cl (relative stereo) [F2562, trans-2,2-Dichloro-N-(4-chloro-3-(2-(4-fluoro-2-methylphenyl)hydrazine-1-carbonyl)phenyl)-3-(3,5-dichlorophenyl)cyclopropane-1-carboxamide] | 50 to 100 | A (80–100) | 50 to 100 | 50 to 100 | A (80–100) | 50 to 100
COc1ccc(NNC(=O)c2cc(NC(=O)[C@H]3[C@H](c4cc(Cl)cc(Cl)c4)C3(Cl)Cl)ccc2Cl)cc1 (relative stereo) [F2563, trans-2,2-Dichloro-N-(4-chloro-3-(2-(4-methoxyphenyl)hydrazine-1-carbonyl)phenyl)-3-(3,5-dichlorophenyl)cyclopropane-1-carboxamide] | 50 to 100 | B (More than 0 – Less than 80) | 50 to 100 | 50 to 100 | B (More than 0 – Less than 80) | 50 to 100
O=C(NNc1ccc(OC(F)(F)F)cc1)c1cc(NC(=O)[C@H]2[C@H](c3cc(Cl)cc(Cl)c3)C2(Cl)Cl)ccc1Cl (relative stereo) [F2564, trans-2,2-Dichloro-N-(4-chloro-3-(2-(4-(trifluoromethoxy)phenyl)hydrazine-1-carbonyl)phenyl)-3-(3,5-dichlorophenyl)cyclopropane-1-carboxamide] | 50 to 100 | A (80–100) | 50 to 100 | 50 to 100 | A (80–100) | 50 to 100
O=C(NNc1ccc(OC(F)(F)C(F)(F)F)cc1)c1cc(NC(=O)[C@H]2[C@H](c3cc(Cl)cc(Cl)c3)C2(Cl)Cl)ccc1Cl (relative stereo) [F2565, trans-2,2-Dichloro-N-(4-chloro-3-(2-(4-(perfluoroethoxy)phenyl)hydrazine-1-carbonyl)phenyl)-3-(3,5-dichlorophenyl)cyclopropane-1-carboxamide] | 50 to 100 |  | 50 to 100 | 50 to 100 | D (No activity noticed in this bioassay) | 50 to 100
Cl.NNC(=O)c1cc(NC(=O)[C@H]2[C@H](c3cc(Cl)cc(Cl)c3)C2(Cl)Cl)ccc1Cl (relative stereo) [F2567, trans-2,2-dichloro-N-(4-chloro-3-(hydrazinecarbonyl)phenyl)-3-(3,5-dichlorophenyl)cyclopropane-1-carboxamide hydrochloride] | 50 to 100 | A (80–100) | 50 to 100 | 50 to 100 | A (80–100) | 50 to 100
O=C(NNc1cccc(C(F)(F)F)c1)c1cc(NC(=O)[C@H]2[C@H](c3cc(Cl)cc(Cl)c3)C2(Cl)Cl)ccc1Cl (relative stereo) [F2572, trans-2,2-Dichloro-N-(4-chloro-3-(2-(3-(trifluoromethyl)phenyl)hydrazine-1-carbonyl)phenyl)-3-(3,5-dichlorophenyl)cyclopropane-1-carboxamide] | 50 to 100 | A (80–100) | 50 to 100 | 50 to 100 | A (80–100) | 50 to 100
N#Cc1ccccc1NNC(=O)c1cc(NC(=O)[C@H]2[C@H](c3cc(Cl)cc(Cl)c3)C2(Cl)Cl)ccc1Cl (relative stereo) [F2576, trans-2,2-Dichloro-N-(4-chloro-3-(2-(2-cyanophenyl)hydrazine-1-carbonyl)phenyl)-3-(3,5-dichlorophenyl)cyclopropane-1-carboxamide] | 50 to 100 | A (80–100) | 50 to 100 | 50 to 100 | A (80–100) | 50 to 100
O=C(NN=Cc1ccccn1)c1cc(NC(=O)[C@H]2[C@H](c3cc(Cl)cc(Cl)c3)C2(Cl)Cl)ccc1Cl (relative stereo) [F3002, trans-2,2-Dichloro-N-(4-chloro-3-(2-(pyridin-2-ylmethylene)hydrazine-1-carbonyl)phenyl)-3-(3,5-dichlorophenyl)cyclopropane-1-carboxamide] | 50 to 100 | A (80–100) | 50 to 100 | 50 to 100 | A (80–100) | 50 to 100
